US20220362122A1, “Hair Treatment Compositions With Amine Derivatives” (ELC Management LLC, priority 2021, published 2022)
Entries after “also recorded” stand apart in the source; their conditions may differ. Where two headings read alike, the source gives them in different places. Marks after values point to notes of the source that are not given here.

Experiments:
[1] = alkalizer composition; 22° C., T-F spindle, 6 rpm
[2] = alkalizer composition
[3] = for Lifting level normalized to NH3•H2O / Relative lifting level in percentage (LVirgin-LAlkalizer)/(LVirgin-LNaOH) / ΔL (change in color lifting) LVirgin-LAlkalizer: single alkalizer compositions, Table 5; for lifting of natural hair color, comparison in words: single alkalizer/oxidizer mixtures; for L Value: single alkalizer composition + volume 40 oxidizer developer on hair tresses, 37° C., 45 minutes, virgin 19
[4] = pH of alkalizer composition
outer root sheath cells = assay: MultiTox-Fluor Multiplex Cytotoxicity Assay, outer root sheath cells; type: cell-based; settings: for IC50: greater IC50 = less stress on the cells, unit inferred; for toxicity to the cell, comparison in words: outer root sheath cells
Method: (§1) The effects of alkalizer compositions on outer root sheath cells and on keratinocytes was evaluated. The MultiTox-Fluor Multiplex Cytotoxicity Assay (Promega Corp., Madison, Wis.) simultaneously measures two protease activities: one is a marker of cell viability, and the other is a marker of cytotoxicity. In the assays, the responses of outer root sheath cells and keratinocytes to various concentrations of alkalizers were measured, and IC50, the concentration that provokes a mid-height response (midway between the baseline response and maximal response), was determined.

keratinocytes = assay: MultiTox-Fluor Multiplex Cytotoxicity Assay, keratinocytes; type: cell-based; settings: for toxicity to the cell, comparison in words: keratinocytes; for IC50: Keratinocyte, greater IC50 = less stress on the cells, unit inferred
Method: as §1

[5] = Table 12 AEPD-Tris series, mole ratio AEPD/Tris, virgin hair 20.4
[6] = alkalizer composition: Table 2 base + alkalizer, same molar percentage
[7] = Table 13 Serinol-Tris series, mole ratio Serinol/Tris, virgin hair 20.4

| Molecule | Viscosity (cP × 10^5) [1] [cP × 10^5] | Alkalinity [2] [mL/g] | ΔT (change in denaturation temperature) TVirgin-TAlkalizer (keratin in hair) | pH [4] | pH [4, 6] | % Relative damage level compared to NaOH (TVirgin-TAlkalizer)/(TVirgin-TNaOH) (keratin in hair) [%] | Damage level normalized to NH3•H2O (keratin in hair) | Lifting level normalized to NH3•H2O [3] | Relative lifting level in percentage (LVirgin-LAlkalizer)/(LVirgin-LNaOH) [3] [%] | ΔL (change in color lifting) LVirgin-LAlkalizer [3] | lifting of natural hair color, comparison in words [3] | IC50 (outer root sheath cells) [mM] | toxicity to the cell, comparison in words (outer root sheath cells) | toxicity to the cell, comparison in words (keratinocytes) | hair damage / denaturation temperature, comparison in words (keratin in hair) | L Value [3] | also measured |
| --- | --- | --- | --- | --- | --- | --- | --- | --- | --- | --- | --- | --- | --- | --- | --- | --- | --- |
| 3-Amino-1-propanol [AP] | 3.26 | 3.10 | 12 | 11.49 | – | 83.97 | 4.30 | 1.20 | 102.27 | −18 | better at lifting natural hair color than the ammonium hydroxide/oxidizer mixture; also recorded: outperformed all of them | – | – | – | – | – | Denaturation Temperature (° C.) (keratin in hair): 138.42 °C |
| CCC(N)(CO)CO [AEPD, 2-Amino-2-ethyl-1,3-propanediol] | 4.47 | 2.40 | 4.17 | – | 10.33 | 29.18 | 1.49 | 0.73 | 62.50 | −11 | not quite as good as secondary amine alkalizer, DEA, but close | 87 | significantly less toxic than ammonium hydroxide | significantly less toxic than ammonium hydroxide | performed significantly better than MEA and AMP | 30 | denaturation temperature in binary combinations, in words (keratin in hair): lowered the denaturation temperature, but only slightly; L* value ([3]; Table 7 AEPD-NH3 series, mole ratio AEPD/NH3, virgin hair 20.2): 30; L* value [3, 5]: 30.4 |
| CC(C)(N)CO [AMP, aminomethyl propanol, reference compound] | 1.81 | 2.32 | 8.59 | – | 10.91 | 60.11 | 3.08 | 0.90 | 76.70 | −13.5 | – | – | more toxic to the cell than ammonium hydroxide | more toxic to the cell than ammonium hydroxide | – | 32.5 | – |
| CC(N)(CO)CO [AMPD, 2-Amino-2-methyl-1,3-propanediol] | 3.84 | 2.49 | 4.54 | 10.28 | – | – | 1.63 | 0.87 | – | −13 | almost as good as MEA and ammonium hydroxide | – | significantly less toxic than ammonium hydroxide | significantly less toxic than ammonium hydroxide | – | – | – |
| Ammonium hydroxide [reference compound] | – | – | 2.79 | 10.72 | – | – | 1 | – | – | – | – | – | – | – | – | – | – |

Further lines, with some results ahead:

| Viscosity (cP × 10^5) [1] [cP × 10^5] | Alkalinity [2] [mL/g] | ΔT (change in denaturation temperature) TVirgin-TAlkalizer (keratin in hair) | pH [4] | pH [4, 6] | Molecule | % Relative damage level compared to NaOH (TVirgin-TAlkalizer)/(TVirgin-TNaOH) (keratin in hair) [%] | Damage level normalized to NH3•H2O (keratin in hair) | Lifting level normalized to NH3•H2O [3] | Relative lifting level in percentage (LVirgin-LAlkalizer)/(LVirgin-LNaOH) [3] [%] | ΔL (change in color lifting) LVirgin-LAlkalizer [3] | lifting of natural hair color, comparison in words [3] | IC50 (outer root sheath cells) [mM] | toxicity to the cell, comparison in words (outer root sheath cells) | toxicity to the cell, comparison in words (keratinocytes) | hair damage / denaturation temperature, comparison in words (keratin in hair) | L Value [3] | also measured |
| --- | --- | --- | --- | --- | --- | --- | --- | --- | --- | --- | --- | --- | --- | --- | --- | --- | --- |
| 5.09 | 2.57 | 1.79 | 10.35 | – | OCCNCCO [DEA, Diethanolamine] | – | 0.64 | 0.77 | – | −11.5 | – | – | – | – | less damaging to hair than the ammonium hydroxide composition | – | – |
| 0.211 | 2.38 | 2.58 | – | 11.15 | CN(C)C(C)(C)CO [DMAMP, 2-Dimethyl-amino-2-methyl-1-propanol] | 18.05 | 0.92 | 0.47 | 39.77 | −7 | – | 18 | more toxic than ammonium hydroxide, but less toxic than conventional replacement AMP; also recorded: more toxic to the cell than ammonium hydroxide | more toxic than ammonium hydroxide, but less toxic than conventional replacement AMP; also recorded: less toxic to keratinocytes than MEA; also recorded: more toxic to the cell than ammonium hydroxide | less damaging to hair than the ammonium hydroxide composition | 26 | IC50 (keratinocytes): 33 mM; denaturation temperature in binary combinations, in words (keratin in hair): raised the denaturation temperature; L* value ([3]; Table 8A DMAMP-NH3 series, mole ratio DMAMP/NH3, virgin hair 20.3): 26; L* value ([3]; Table 8B DMAMP-NH3 in low DMAMP percentages, mole ratio DMAMP/NH3, virgin hair 20.3): 24.9 |
| 3.23 | 2.57 | 0.96 | – | 10.37 | CN(C)CC(O)CO (stereo not drawn) [DMAPD, 3-(dimethylamino)-1,2-propanediol] | 6.72 | 0.34 | 0.43 | 36.93 | −6.5 | – | – | significantly less toxic than ammonium hydroxide | significantly less toxic than ammonium hydroxide | less damaging to hair than the ammonium hydroxide composition | 25.5 | – |
| 3.75 | 2.45 | 5.83 | – | 10.56 | NCC(O)CO (stereo not drawn) [Isoserinol, 3-Amino-1,2-propanediol] | 40.80 | 2.09 | 1.13 | 96.59 | −17 | significantly better than AMP and about the same as MEA, at lifting hair color; also recorded: better at lifting natural hair color than the ammonium hydroxide/oxidizer mixture; also recorded: about the same effectiveness as MEA, and significantly better effectiveness than AMP | 56.3 | significantly less toxic than ammonium hydroxide | significantly less toxic than ammonium hydroxide | performed significantly better than MEA and AMP | 36 | IC50 (keratinocytes): 97 mM |
| 3.02 | 2.35 | 8.46 | – | 10.85 | NCCO [MEA, monoethanolamine, reference compound] | – | 3.03 | – | – | −17 | – | 21.4 | more toxic to the cell than ammonium hydroxide | more toxic to the cell than ammonium hydroxide | – | 36 | IC50 (keratinocytes): 23 mM |
| – | – | 14.29 | – | – | [Na+].[OH-] [NaOH, reference compound] | 100 | 5.12 | 1.17 | 100 | −17.6 | – | – | – | – | – | 36.6* | – |
| 10.1 | 2.55 | 3.19 | – | 10.22 | NC(CO)CO [Serinol, 2-Amino-1,3-propanediol] | 22.32 | 1.14 | 0.80 | 68.18 | −12 | performed significantly less well than ammonium hydroxide | – | – | – | – | 31 | denaturation temperature in binary combinations, in words (keratin in hair): lowered the denaturation temperature, but only slightly; L* value ([3]; Table 10 Serinol-NH3 series, mole ratio Serinol/NH3, virgin hair 19.9): 31.2; L* value [3, 7]: 31.2 |
| 4.17 | 2.43 | 1.42 | – | 9.6 | NC(CO)(CO)CO [Tris, Tromethamine] | – | 0.51 | 0.53 | – | −8 | as good as tertiary alkalizer DMAP | – | – | – | also performed well | 27 | L* value ([3]; Table 9 Tris-NH3 series, mole ratio Tris/NH3, virgin hair 20.0): 28; L* value ([3]; Table 11 AMPD-Tris series, mole ratio AMPD/Tris, virgin hair 20.3): 28; L* value [3, 5]: 28.5; L* value [3, 7]: 28.5; L* value / color lifting in binary combinations, in words ([3]; binary combinations of alkalizers): tends to reduce the effectiveness of color lifting |
